Test results as given in patent publication US10265303B2, “Hyperphenylalaninemia and treatments thereof” (BERGEN TEKNOLOGIOVERFØRING AS, priority 2015, dated 2019).
Positions count from the first letter of the chain named.

Tests used:
I65T-PAH = molecular target: T1, I65T-PAH (Homo sapiens, UniProt P00439, I65T); test: PAH protein level and activity in HEK293 EBNA cells transiently expressing PKU mutant I65T; type: cell-based; details: 24 h
T1 construct: expressed in transfected cells; host or cells: HEK293 EBNA, transient, pcDNA3-PAH
T1 sequence (P00439 1-452 I65T): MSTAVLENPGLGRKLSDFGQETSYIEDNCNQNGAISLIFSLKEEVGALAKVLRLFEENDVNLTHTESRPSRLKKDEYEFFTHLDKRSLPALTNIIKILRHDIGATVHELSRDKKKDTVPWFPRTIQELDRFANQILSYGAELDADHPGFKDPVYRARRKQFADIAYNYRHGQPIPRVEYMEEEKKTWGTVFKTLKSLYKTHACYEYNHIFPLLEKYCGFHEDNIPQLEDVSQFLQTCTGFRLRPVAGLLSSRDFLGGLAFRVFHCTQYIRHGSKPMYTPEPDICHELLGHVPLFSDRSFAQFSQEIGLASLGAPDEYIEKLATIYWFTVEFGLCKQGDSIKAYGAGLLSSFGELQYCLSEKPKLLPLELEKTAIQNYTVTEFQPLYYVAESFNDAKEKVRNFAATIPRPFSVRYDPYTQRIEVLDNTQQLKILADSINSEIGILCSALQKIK
Description: Cell lysates were prepared as indicated above.

hPAH = molecular target: T2, hPAH (Homo sapiens, UniProt P00439); test: SPR screening and affinity determination on immobilized hPAH (Biacore T200); type: binding; details: SPR, 25° C., compound 0-500 μM in 5% DMSO; affinities said to be overestimated, relative KD reliable; read-out: KD (μM) ± SER
T2 sequence (P00439 1-452): T1 sequence (P00439 1-452 I65T) with T65I
Description: For detailed determination of binding affinity of Compound 53 and derivatives (FIG. 4) SPR was performed on a Biacore T200 (GE Healthcare Life Sciences) at a temperature of 25° C. A hPAH solution at 0.08 μg/μl in a final volume of 200 μl in acetate buffer pH 5.0 was immobilized onto series S sensor chip CM5 by the standard amine coupling procedure at a flow rate of 30 μl/min and PBS-P+ buffer as running buffer aiming for RU 20000. After the coupling reaction the surface of the sensor chip was washed to eliminate unbound species with HBS buffer (0.01 M NaHepes pH 7.4, 0.15 M NaCI) at steady flow of 20 μl/min for 1 hour until the baseline drift was around 0.05 RU/s; note that an early injection of 40 μl dithiothreitol (DTT) 10 mM in HBS allowed for this reduced washing time.
For the screening, compounds were assayed at a concentration of 200 μM, with 5% DMSO in duplicates, including negative controls with 5% DMSO, positive controls, with 200 μM BH2 and solvent correction was also performed. For KD calculations, a compound concentration 0-500 μM (in 5% DMSO) were applied at otherwise analogous experimental design and analyses were performed using Biacore T200 Evaluation Software, version 2.0 (GE Healthcare Life Sciences).
All the responses from the compounds of the screening were subjected to blank subtraction (negative control 5% DMSO), molecular weight adjustment and solvent correction to account for differences in bulk response. Next a cut-off value for the screening was selected based on the response of the positive control of our experiments: RU BH2+3*SD (2.88+3*1.79=8.27). In this manner, from the 11 derivatives of Compound 53 tested (see FIG. 4) we weeded out those compounds with a lower response than 8.27, namely #53.2, #53.9 and #53.11.
In addition and for the rest of the compounds which continued our workflow, binding affinities were determined and the results are shown in the following table. The selected conditions to measure affinity are selected for high throughput measurements, but the affinities are overestimated though the relative KD for the different compounds are reliable.

protein and activity, mutant I65T, Compound 53 and BH2 together (I65T-PAH; 200 μM each): trends for additive effects
PAH activity, mutant I65T (I65T-PAH; 200 μM, 1% DMSO): greatly increased
hPAH protein level, mutant I65T (I65T-PAH; 200 μM, 1% DMSO): greatly increased
Kd (hPAH): 58.5 ± 35.8 µM
SMILES: COc1cc(Cc2cnc(N)nc2N)cc(OC)c1OC [c53, trimethoprim]
